Seven compounds from patent publication EP0255299A2, “Glycopeptide antibiotics” (SMITHKLINE BECKMAN CORPORATION, priority 1986, dated 1988) can be followed below.

The term solubility denotes how much of the substance goes into solution per volume.

For series [1], the system named is S. faecalis (strain 9, Table 2). As to the kind of experiment: mouse protection assay, i.p. infection with S. faecalis, single s.c. dose. The format is in vivo. The following applies: mice infected with 3.17 LD50's, dosed once subcutaneously one hour after infection. How it is done:
(§1) The in vivo activity of the CWI-785 complex and its components and hydrolysis products was confirmed by administering selected CWI-785 antibiotics to mice infected with various gram-positive pathogens. In one representative assay, in which mice infected intraperitoneally with 46.8 LD ₅₀ʹs of S. aureus (strain 1, Tables 1 and 2) were dosed once, subcutaneously one hour after infection, the following ED₅₀ʹs (mg/kg) (the ED₅₀ gives the amount of antibiotic necessary for 50% survival) were observed: CWI-785B: 2.4, CWI-785C: 3.1, CWI-785: 3.8, HPB3: 0.9, vancomycin: 0.7. In a second representative assay carried out as above except that mice were infected with 3.17 LD₅₀ʹs of S. faecalis (strain 9, Table 2), the following ED₅₀ʹs were observed: HPB3 hydrochloride: 1.6, HPB4 hydrochloride: 1.6, vancomycin: 2.2, teicoplanin: 1.3.

Series [2] deals with S. aureus (strain 1, Tables 1 and 2). As to the kind of experiment: mouse protection assay, i.p. infection with S. aureus, single s.c. dose. The format is in vivo. The following applies: mice infected intraperitoneally with 46.8 LD50's, dosed once subcutaneously one hour after infection, 50% survival. The procedure: as §1
The next series is described as follows: physchem. The format is physicochemical. From the text: The invention includes within its scope pharmaceutical compositions containing at least one of the above-mentioned antibiotic compounds and a pharmaceutically acceptable carrier. The compositions may also contain other active antibacterial agents. The compositions may be made up in any pharmaceutical form appropriate for the route of administration in question. Such compositions are exemplified by solid compositions for oral administration, such as tablets, capsules, pills, powders and granules; liquid compositions for oral administration such as solutions, suspensions, syrups and elixirs; preparations for parenteral administration such as sterile solutions, suspensions or emulsions; and preparations for topical administration such as gels, creams, ointments or salves. […] In 40% prophylene glycol in water (V/V), the solubility of HPB4 free base is greater than about 200 mg/ml. […] The solubility of HPB4·K is about 300 mg/ml. The solubility of HPB4·2HCl is about 600 mg/ml.
The solubility of the potassium salt is about 300 mg/ml in water.

A further series is described as follows: pH of aqueous solution. The format is physicochemical. The following applies: 100 mg/ml aqueous solution.

≈ marks a conversion by molar mass, not a printed value. Where two headings read alike, the source gives them in different places. Bounds are passed on as bounds.

Turning to `CNC(C(=O)NC1C(=O)NC(CC[S+](C)[O-])C(=O)NC2C(=O)NC3C(=O)NC(C(=O)NC(C(=O)O)c4cc(O)cc(O)c4-c4cc3ccc4O)C(OC3CC(N)C(O)C(C)O3)c3ccc(c(Cl)c3)Oc3cc2cc(c3O)Oc2ccc(cc2)C1O)c1ccc(O)cc1.Cl` (centres unmarked) [HPB3 hydrochloride], the ED₅₀ in series [1] was 1.6 mg/kg.

In turn, `CNC(C(=O)NC1C(=O)NC(CC[S+](C)[O-])C(=O)NC2C(=O)NC3C(=O)NC(C(=O)NC(C(=O)O)c4cc(O)cc(O)c4-c4cc3ccc4O)C(OC3CC(N)C(O)C(C)O3)c3ccc(c(Cl)c3)Oc3cc2cc(c3O)Oc2ccc(cc2)C1O)c1ccc(O)cc1` (centres unmarked) [HPB3] returned an ED₅₀ in series [2] of 0.9 mg/kg.

Turning to `CNC(C(=O)NC1C(=O)NC(CCSC)C(=O)NC2C(=O)NC3C(=O)NC(C(=O)NC(C(=O)O)c4cc(O)cc(O)c4-c4cc3ccc4O)C(OC3CC(N)C(O)C(C)O3)c3ccc(c(Cl)c3)Oc3cc2cc(c3O)Oc2ccc(cc2)C1O)c1ccc(O)cc1.Cl` (centres unmarked) [HPB4 hydrochloride], the ED₅₀ in series [1] was determined as 1.6 mg/kg.

In the case of `CNC(C(=O)NC1C(=O)NC(CCSC)C(=O)NC2C(=O)NC3C(=O)NC(C(=O)NC(C(=O)O)c4cc(O)cc(O)c4-c4cc3ccc4O)C(O[C@H]3C[C@@H](N)[C@@H](O)[C@H](C)O3)c3ccc(c(Cl)c3)Oc3cc2cc(c3O)Oc2ccc(cc2)C1O)c1ccc(O)cc1` (some centres unmarked) [HPB4], the solubility was ~250 mg/mL (≈ 194 mM) in the series “physchem” (40% peg-400 in water, organic solvent or mixture, solubility) and > 200 mg/mL in “physchem” (40% propylene glycol in water, organic solvent or mixture, solubility).

With `CNC(C(=O)NC1C(=O)NC(CCSC)C(=O)NC2C(=O)NC3C(=O)NC(C(=O)NC(C(=O)O)c4cc(O)cc(O)c4-c4cc3ccc4O)C(O[C@H]3C[C@@H](N)[C@@H](O)[C@H](C)O3)c3ccc(c(Cl)c3)Oc3cc2cc(c3O)Oc2ccc(cc2)C1O)c1ccc(O)cc1` (some centres unmarked) [HPB4·2HCl], in “physchem”, the solubility result was “about 600 mg/ml”.

Take `CNC(C(=O)NC1C(=O)NC(CCSC)C(=O)NC2C(=O)NC3C(=O)NC(C(=O)NC(C(=O)O)c4cc(O)cc(O)c4-c4cc3ccc4O)C(O[C@H]3C[C@@H](N)[C@@H](O)[C@H](C)O3)c3ccc(c(Cl)c3)Oc3cc2cc(c3O)Oc2ccc(cc2)C1O)c1ccc(O)cc1` (some centres unmarked) [HPB4·K]: the solubility in “physchem” (solubility) is ~300 mg/mL (≈ 232 mM); in “physchem” (water, solubility), ~300 mg/mL (≈ 232 mM). In “pH of aqueous solution”, this compound yielded a pH of 9.29.

`CN[C@H](CC(C)C)C(=O)N[C@H]1C(=O)N[C@@H](CC(N)=O)C(=O)N[C@H]2C(=O)N[C@H]3C(=O)N[C@H](C(=O)N[C@H](C(=O)O)c4cc(O)cc(O)c4-c4cc3ccc4O)[C@H](O)c3ccc(c(Cl)c3)Oc3cc2cc(c3O[C@@H]2O[C@H](CO)[C@@H](O)[C@H](O)[C@H]2O[C@H]2C[C@](C)(N)[C@H](O)[C@H](C)O2)Oc2ccc(cc2Cl)[C@H]1O` [vancomycin, reference compound]: the ED50 in series [1] (Enterococcus faecalis, sc, 1 h, read-out: ED₅₀) was 2.2 mg/kg; in series [2] (Staphylococcus aureus, sc, 1 h, read-out: ED₅₀), 0.7 mg/kg.
